Read-outs that look alike come from different tables or passages of the source. Ends that are not written are not given here.
Legend:
GST-Als5 [1] = target: T1, GST-Als5 (Candida albicans, UniProt Q5A8T7); experiment: biochemical; type: binding; conditions: for Kd: 0.02 mg/ml protein, excitation 295 nm, one-site saturation model
T1 construct: made in house; host or cells: E. coli BL21(DE3)
Protocol: (§1) Binding of GST-Als5 and GST-Als5-SS proteins to different peptides was monitored by fluorescence emission spectroscopy. Freshly purified samples of protein were used each time. 0.02 mg/ml of the proteins were taken and the tryptophan-specific emission spectra were monitored between 310 nm to 400 nm by excitation at 295 nm. The peptides were titrated into the protein solutions, incubated for 5 minutes after each addition, and emission spectra recorded. Both excitation and emission bandwidths were fixed at 5 nm and all spectra were averages of 5 scans. All spectra were corrected for buffer and peptide backgrounds.
(§2) All binding data were analyzed using a one-site saturation model. Binding studies were done at different temperatures, and ΔG^o for the protein-peptide interactions calculated using the equation: ΔG^o = –RTlnKa. ΔH^o and ΔS^o were obtained from the slope and intercept of the van’t Hoff plots according to the equation: [drawing 1]
(§3) The change in fluorescence emission intensity upon titration with the peptide ligands was monitored (see Figures S8A, S8C, S8E, S8G and Figures S9A, S9C, S9E, S9G, respectively) and the binding plots obtained (Figures S8B, S8D, S8F, S8H and Figures S9B, S9D, S9F, S9H, respectively) were used to calculate dissociation constants (Kd) for the interaction (Table 1).
Supplementary file pone.0035305.s008.tif: Figure S8 Binding of GST-Als5 with different peptides. A, C, E and G show representative fluorescence spectra obtained upon binding of GST-Als5 with the peptide EHAHTPR at 15 °C, 27 °C, 37 °C and 47 °C, respectively. B, D, F and H represent the binding plots of GST-Als5 with different peptides at 15 °C, 27 °C, 37 °C and 47 °C, respectively. Each data point gives the average of three independent measurements done in duplicates and the error bars denote standard deviations. Spectra 1–7 represent binding of peptides with GST-Als5 in the following order of increasing concentrations of the peptides: 1: no peptide; 2: 0.037 µM; 3: 0.074 µM; 4: 0.443 µM; 5: 0.804 µM; 6: 1.154 µM; 7: 1.5 µM. (TIF) Click here for additional data file.

GST-Als5-SS [2] = target: T2, GST-Als5-SS (Candida albicans, UniProt Q5A8T7); experiment: biochemical; type: binding
T2 construct: made in house; host or cells: E. coli BL21(DE3)
Protocol: as §1, §2
as §3, with “1). […]” for “1).”

GST-Als5 [3] = target: T3, GST-Als5 (Candida albicans, UniProt Q5A8T7 20-1327); experiment: other fluorescence titration; tryptophan fluorescence of 0.02 mg/ml protein, peptide titrated in; one-site saturation model; 42 °C; conditions: both partners purified
T3 construct: source: E. coli BL21, purified (glutathione-agarose); not shown: GST, N-terminal, kept
T3 sequence: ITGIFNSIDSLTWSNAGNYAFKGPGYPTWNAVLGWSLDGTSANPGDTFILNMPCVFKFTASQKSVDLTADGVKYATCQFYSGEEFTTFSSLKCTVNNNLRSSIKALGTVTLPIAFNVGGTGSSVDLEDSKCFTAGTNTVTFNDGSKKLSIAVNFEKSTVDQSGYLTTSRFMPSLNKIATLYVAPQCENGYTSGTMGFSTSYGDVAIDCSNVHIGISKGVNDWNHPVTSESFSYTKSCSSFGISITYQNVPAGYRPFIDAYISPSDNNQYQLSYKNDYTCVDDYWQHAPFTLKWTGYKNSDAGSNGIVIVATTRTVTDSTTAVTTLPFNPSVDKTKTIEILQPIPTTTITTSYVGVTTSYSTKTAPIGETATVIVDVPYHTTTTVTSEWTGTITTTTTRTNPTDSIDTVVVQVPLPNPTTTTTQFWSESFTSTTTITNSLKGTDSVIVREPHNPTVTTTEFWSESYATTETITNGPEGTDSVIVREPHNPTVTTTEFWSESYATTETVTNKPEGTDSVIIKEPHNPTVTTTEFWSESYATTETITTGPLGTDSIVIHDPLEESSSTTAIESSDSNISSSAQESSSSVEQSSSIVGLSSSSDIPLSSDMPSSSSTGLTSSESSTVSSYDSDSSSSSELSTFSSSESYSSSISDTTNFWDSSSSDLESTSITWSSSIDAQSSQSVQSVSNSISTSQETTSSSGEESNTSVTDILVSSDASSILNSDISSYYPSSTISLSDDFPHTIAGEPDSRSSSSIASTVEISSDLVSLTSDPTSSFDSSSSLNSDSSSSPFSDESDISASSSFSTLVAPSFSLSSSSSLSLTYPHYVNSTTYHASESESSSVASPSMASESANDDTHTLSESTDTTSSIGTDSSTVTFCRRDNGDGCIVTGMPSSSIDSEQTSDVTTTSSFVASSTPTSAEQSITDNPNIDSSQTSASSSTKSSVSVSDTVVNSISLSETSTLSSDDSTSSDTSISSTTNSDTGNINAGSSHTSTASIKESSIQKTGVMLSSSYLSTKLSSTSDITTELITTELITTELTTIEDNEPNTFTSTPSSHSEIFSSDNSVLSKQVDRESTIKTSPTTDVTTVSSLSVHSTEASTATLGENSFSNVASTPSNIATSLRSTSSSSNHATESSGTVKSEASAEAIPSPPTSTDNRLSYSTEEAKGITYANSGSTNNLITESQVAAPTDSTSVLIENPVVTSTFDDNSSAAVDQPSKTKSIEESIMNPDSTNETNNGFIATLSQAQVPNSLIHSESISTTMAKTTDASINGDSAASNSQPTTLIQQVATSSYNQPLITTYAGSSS

GST-Als5-SS [4] = target: T4, GST-Als5-SS (Candida albicans, UniProt Q5A8T7 20-1326, N-terminal GST tag (pGEX-6P-2) not cleaved, omitted here; expressed in E. coli, unglycosylated. The 4044 bp insert implies the full ORF, including the N-terminal secretion signal, although the figure); experiment: other fluorescence titration; tryptophan fluorescence of 0.02 mg/ml protein, peptide titrated in; one-site saturation model; 52 °C (secondary structure of both proteins mildly perturbed at this temperature); conditions: both partners purified
GST-Als5 [5] = target: T3, GST-Als5; experiment: as above; conditions: both partners purified
GST-Als5-SS [6] = target: T4, GST-Als5-SS; experiment: other fluorescence titration; van't Hoff plots of the association constants from the fluorescence titrations at different temperatures; ΔH° from the slope; conditions: both partners purified
GST-Als5 [7] = target: T3, GST-Als5; experiment: as above; conditions: both partners purified
[8] = 15 °C, N.B. = no binding observed, emission 310-400 nm, average of three independent measurements in duplicates
[9] = 27 °C, N.B. = no binding observed, average of three independent measurements in duplicates
[10] = Kd, 37 °C, average of three independent measurements in duplicates
[11] = Kd, 47 °C, N.B. = no binding observed, average of three independent measurements in duplicates
[12] = 15 °C, N.B. = no binding observed, 0.02 mg/ml protein, excitation 295 nm, emission 310-400 nm, one-site saturation model, average of three independent measurements in duplicates
[13] = Kd, 27 °C, N.B. = no binding observed, 0.02 mg/ml protein, excitation 295 nm, one-site saturation model, average of three independent measurements in duplicates
[14] = Kd, 37 °C, 0.02 mg/ml protein, excitation 295 nm, one-site saturation model, average of three independent measurements in duplicates
[15] = Kd, 47 °C, N.B. = no binding observed, 0.02 mg/ml protein, excitation 295 nm, one-site saturation model, average of three independent measurements in duplicates

T2 sequence (Q5A8T7 whole entry): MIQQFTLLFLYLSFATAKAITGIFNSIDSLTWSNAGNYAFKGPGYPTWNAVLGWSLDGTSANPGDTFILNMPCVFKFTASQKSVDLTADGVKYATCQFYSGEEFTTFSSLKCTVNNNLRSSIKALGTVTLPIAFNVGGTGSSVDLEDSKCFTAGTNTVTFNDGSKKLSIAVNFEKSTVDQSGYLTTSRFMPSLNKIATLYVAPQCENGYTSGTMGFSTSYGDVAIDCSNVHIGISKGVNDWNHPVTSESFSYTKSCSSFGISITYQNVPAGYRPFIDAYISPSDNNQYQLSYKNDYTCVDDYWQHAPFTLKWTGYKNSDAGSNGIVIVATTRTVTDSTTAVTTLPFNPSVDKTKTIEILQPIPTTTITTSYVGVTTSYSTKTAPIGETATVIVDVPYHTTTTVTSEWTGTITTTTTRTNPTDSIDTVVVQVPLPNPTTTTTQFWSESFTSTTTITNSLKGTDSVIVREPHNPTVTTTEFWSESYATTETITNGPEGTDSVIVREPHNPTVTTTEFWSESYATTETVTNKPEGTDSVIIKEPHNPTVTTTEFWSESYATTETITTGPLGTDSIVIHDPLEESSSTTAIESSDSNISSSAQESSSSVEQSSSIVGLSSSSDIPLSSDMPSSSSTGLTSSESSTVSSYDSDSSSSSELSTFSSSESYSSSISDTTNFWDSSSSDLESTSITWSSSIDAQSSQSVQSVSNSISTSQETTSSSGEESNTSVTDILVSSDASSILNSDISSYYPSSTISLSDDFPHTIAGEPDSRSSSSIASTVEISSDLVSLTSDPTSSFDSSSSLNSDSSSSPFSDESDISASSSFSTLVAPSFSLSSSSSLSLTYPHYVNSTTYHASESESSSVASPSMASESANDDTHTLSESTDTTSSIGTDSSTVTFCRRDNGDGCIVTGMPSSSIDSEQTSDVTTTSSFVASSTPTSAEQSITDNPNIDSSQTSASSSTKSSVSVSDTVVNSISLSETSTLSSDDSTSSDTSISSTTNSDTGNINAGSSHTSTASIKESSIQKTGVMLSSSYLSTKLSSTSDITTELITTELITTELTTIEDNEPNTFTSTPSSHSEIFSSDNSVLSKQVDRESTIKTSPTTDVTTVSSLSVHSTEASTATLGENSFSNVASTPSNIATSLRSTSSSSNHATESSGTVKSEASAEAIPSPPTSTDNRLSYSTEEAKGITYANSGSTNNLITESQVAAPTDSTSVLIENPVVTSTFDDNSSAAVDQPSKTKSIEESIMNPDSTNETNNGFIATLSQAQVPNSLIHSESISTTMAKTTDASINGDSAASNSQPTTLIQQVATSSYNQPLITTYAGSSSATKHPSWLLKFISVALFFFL
T1 sequence (Q5A8T7 1-1327): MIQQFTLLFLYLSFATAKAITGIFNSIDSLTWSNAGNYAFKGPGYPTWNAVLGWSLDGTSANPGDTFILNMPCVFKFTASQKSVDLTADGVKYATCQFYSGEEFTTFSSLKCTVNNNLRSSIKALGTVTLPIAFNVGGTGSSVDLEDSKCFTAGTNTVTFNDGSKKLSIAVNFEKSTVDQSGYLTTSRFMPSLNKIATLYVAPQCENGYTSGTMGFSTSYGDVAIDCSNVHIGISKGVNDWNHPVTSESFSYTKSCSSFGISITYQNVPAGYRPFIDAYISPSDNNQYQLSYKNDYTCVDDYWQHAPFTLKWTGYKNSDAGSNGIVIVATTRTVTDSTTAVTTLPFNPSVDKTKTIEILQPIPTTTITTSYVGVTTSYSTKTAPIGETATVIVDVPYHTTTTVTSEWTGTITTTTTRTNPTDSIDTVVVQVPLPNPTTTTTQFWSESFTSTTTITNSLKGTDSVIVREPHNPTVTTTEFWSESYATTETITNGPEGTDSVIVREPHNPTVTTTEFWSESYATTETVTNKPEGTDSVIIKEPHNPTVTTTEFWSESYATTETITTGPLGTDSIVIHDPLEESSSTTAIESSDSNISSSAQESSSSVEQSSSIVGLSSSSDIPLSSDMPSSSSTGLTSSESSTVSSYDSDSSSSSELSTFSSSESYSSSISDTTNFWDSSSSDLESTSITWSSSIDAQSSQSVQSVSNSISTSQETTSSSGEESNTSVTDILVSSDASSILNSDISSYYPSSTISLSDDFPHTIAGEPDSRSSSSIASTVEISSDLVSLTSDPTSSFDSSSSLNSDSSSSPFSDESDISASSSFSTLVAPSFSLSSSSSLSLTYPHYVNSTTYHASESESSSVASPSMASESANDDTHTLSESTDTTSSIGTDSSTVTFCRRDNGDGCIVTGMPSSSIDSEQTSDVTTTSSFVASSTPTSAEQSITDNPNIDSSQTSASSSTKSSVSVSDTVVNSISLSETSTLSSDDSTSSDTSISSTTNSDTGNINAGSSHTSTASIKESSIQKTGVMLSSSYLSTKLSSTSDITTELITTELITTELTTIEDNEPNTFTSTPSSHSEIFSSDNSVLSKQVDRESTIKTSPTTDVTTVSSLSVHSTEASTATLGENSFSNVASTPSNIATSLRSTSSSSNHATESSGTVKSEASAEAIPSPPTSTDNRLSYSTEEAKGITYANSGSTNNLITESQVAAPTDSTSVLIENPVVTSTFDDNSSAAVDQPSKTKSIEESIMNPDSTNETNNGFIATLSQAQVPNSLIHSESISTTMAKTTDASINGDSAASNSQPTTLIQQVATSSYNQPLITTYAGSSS

Molecule	Kd (GST-Als5 [1]; [8])	Kd (GST-Als5 [1]; [9])	Kd (GST-Als5 [1]; [10])	Kd (GST-Als5 [1]; Kd, 42 °C)	Kd (GST-Als5 [1]; [11])	Kd (GST-Als5-SS [2]; [12])	Kd (GST-Als5-SS [2]; [13])	Kd (GST-Als5-SS [2]; [14])	Kd (GST-Als5-SS [2]; [15])	Kd (GST-Als5 [3])	Kd (GST-Als5-SS [4])	Kd (GST-Als5 [5])	dH (GST-Als5-SS [6])	dH (GST-Als5 [7])	also measured
AYKSLMT [AYKSLMT]	N.B.	N.B.	13 ± 7 nM	9 ± 4 nM	13 ± 6 nM	N.B.	77 ± 2 nM	6 ± 0.2 nM	9 ± 2 nM	–	–	–	–	–	–
EHAHTPR [EHAHTPR]	N.B.	N.B.	160 ± 38 nM	34 ± 8 nM	34 ± 11 nM	–	82 ± 16 nM	44 ± 4 nM	25 ± 9 nM	–	–	–	–	–	Kd (GST-Als5-SS [2]): 65 ± 13 nM
KLRIPSV [KLRIPSV]	N.B.	N.B.	34 ± 12 nM	–	7 ± 3 nM	N.B.	53 ± 6 nM	17 ± 5 nM	14 ± 2 nM	–	–	–	–	–	Kd (GST-Als5 [1]; Kd, 52 °C (secondary structure of protein mildly perturbed)): 7 ± 2 nM
VSPIRLK [scrambled peptide]	–	N.B.	–	–	–	–	–	–	–	–	–	–	–	–	binding (in words) (GST-Als5 [1]; 27 °C and 47 °C): showed no affinity for either of the protein variants; Kd (GST-Als5 [1]; 47 °C, N.B. = no binding observed, average of three independent measurements in duplicates): N.B.; binding (in words) (GST-Als5-SS [2]; 27 °C and 47 °C): showed no affinity for either of the protein variants; Kd (GST-Als5-SS [2]; 27 °C, N.B. = no binding observed, 0.02 mg/ml protein, excitation 295 nm, one-site saturation model, average of three independent measurements in duplicates): N.B.; Kd (GST-Als5-SS [2]; 47 °C, N.B. = no binding observed, 0.02 mg/ml protein, excitation 295 nm, one-site saturation model, average of three independent measurements in duplicates): N.B.
EHAHTPR (source: synthetic peptide (USV Ltd.))	–	–	–	–	–	–	–	–	–	34 nM	8 nM	11 nM	8.15 kcal/mol	33.4 kcal/mol	–
KLRIPSV (source: synthetic peptide (USV Ltd.))	–	–	–	–	–	–	–	–	–	4 nM	5 nM	7 nM	15.3 kcal/mol	22.5 kcal/mol	–
